Results: paper PMC10095932 (Molecules, 2023)
Read-outs that look alike come from different tables or passages of the source. Where a SMILES comes first, the peptide text is derived from it. Bridges are numbered along the chain shown (N, C = ends).

Experiments:
rat NPR-A = target: T1, rat NPR-A (Rattus norvegicus, UniProt P18910); test: cGMP ALPHAscreen, cGMP production in PC12 cells; assay type: cell-based; conditions: PC12 cells, cGMP ALPHAscreen
T1 construct: endogenous in cells; host or cells: rat PC12 cells
T1 sequence (P18910 29-1057): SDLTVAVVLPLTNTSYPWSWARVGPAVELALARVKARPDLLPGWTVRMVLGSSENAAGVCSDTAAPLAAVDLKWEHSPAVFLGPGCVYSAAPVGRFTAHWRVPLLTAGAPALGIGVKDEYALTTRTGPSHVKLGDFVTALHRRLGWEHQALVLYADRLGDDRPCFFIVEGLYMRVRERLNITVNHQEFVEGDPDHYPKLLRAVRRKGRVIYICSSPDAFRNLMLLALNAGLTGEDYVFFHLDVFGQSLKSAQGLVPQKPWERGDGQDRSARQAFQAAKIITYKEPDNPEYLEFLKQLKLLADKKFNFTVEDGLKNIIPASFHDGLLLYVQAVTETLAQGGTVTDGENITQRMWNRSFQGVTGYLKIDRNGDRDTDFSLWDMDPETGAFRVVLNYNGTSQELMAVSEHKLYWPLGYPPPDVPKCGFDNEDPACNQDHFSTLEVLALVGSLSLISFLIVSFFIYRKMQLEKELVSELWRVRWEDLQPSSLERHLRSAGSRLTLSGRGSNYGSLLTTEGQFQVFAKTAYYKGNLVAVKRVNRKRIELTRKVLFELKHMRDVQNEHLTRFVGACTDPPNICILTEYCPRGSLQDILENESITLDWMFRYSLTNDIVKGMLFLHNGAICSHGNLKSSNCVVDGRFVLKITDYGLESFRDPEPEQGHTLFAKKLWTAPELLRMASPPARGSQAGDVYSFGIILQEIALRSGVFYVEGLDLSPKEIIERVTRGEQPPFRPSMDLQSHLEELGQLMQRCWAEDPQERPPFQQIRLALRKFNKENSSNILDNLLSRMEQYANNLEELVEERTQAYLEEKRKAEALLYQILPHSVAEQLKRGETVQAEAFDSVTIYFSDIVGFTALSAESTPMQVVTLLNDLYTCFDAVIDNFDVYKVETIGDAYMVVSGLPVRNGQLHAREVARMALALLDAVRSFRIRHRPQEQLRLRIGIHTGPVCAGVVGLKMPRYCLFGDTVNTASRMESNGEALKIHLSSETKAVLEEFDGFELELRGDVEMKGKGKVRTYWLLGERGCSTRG
Experimental: NP activity can be determined by the effectiveness of the peptide to elicit cGMP production through NPR-A. The cGMP ALPHAscreen evaluates the ability of peptides to stimulate cGMP production in cells through a non-radioactive, homogenous, proximity assay which encompasses […]. […] In order to evaluate the potency of TNPa-e at rNPR-A, TNPa-e were evaluated using the cGMP ALPHAscreen in rat PC12 cells.
(§1) Cells were cultured at 5% CO2 and 37 °C. HEK 293 cells were cultured in high glucose DMEM (Gibco, Carlsbad, CA, USA) supplemented with 10% FBS, and 1% penicillin/streptomycin. HEK 293 cells were seeded in media lacking penicillin/streptomycin 24 to 48 h pre-transfection. PC12 cells were cultured in high glucose DMEM (Gibco) supplemented with 10% FBS and 1% penicillin/streptomycin.
(§2) The cGMP ALPHAscreen was performed using the ALPHAscreen Protein A detection kit and the biotinylated cGMP supplement (Perkin Elmer, Waltham, MA, USA) with rabbit anti-cGMP polyclonal antibody (Biovision, Mountain View, CA, USA). Cells were detached from the flask and the resulting pellet was resuspended in stimulation buffer (HBSS supplemented with 0.1% w/v BSA and 1 mM IBMX at 37 °C). Cells were added to a white 384-well Optiplate (Perkin Elmer, Waltham, USA) to 30,000 cells per well for HEK 293 cells and 10,000 cells per well for PC12 cells. Cells were incubated with different concentrations of test peptides (concentration range of 1 × 10^−5 to 1 × 10^−11 M in stimulation buffer) at 37 °C for 30 min. Cells were lysed with lysis buffer (1 M HEPES, 0.3% Tween-20, 1% BSA in H2O, pH 7.4). Then 5 μL acceptor-bead mix was added to each well under subdued lighting conditions, followed by 5 μL of donor-bead mix. Plates were incubated for ~12 h, slowly shaking at room temperature. After incubation, the ALPHAscreen signal was measured using an EnVision plate reader (Perkin Elmer). The standard curve consisted of cGMP in a concentration range of 1 × 10^−6 to 1 × 10^−12 M. All data points were acquired in triplicate and were analyzed using GraphPad Prism 5.0 software (GraphPad Software, Inc., San Diego, CA, USA).

human NPR-A = target: T2, human NPR-A (Homo sapiens, UniProt P16066); test: cGMP ALPHAscreen, cGMP production in HEK 293 cells transiently overexpressing hNPR-A; assay type: cell-based; conditions: HEK 293 cells overexpressing hNPR-A; for Emax at 10 µM: HEK293, read-out: cGMP production, % of the maximum response (compared with DNP, hANP, hBNP); for EC50: 30 min at 37 °C, cGMP ALPHAscreen, three separate experiments in triplicate, read-out: hNPR-A EC50 (95% CI), potency to stimulate cGMP production
T2 construct: expressed in transfected cells; host or cells: HEK 293 cells, transient, Lipofectamine 2000
T2 sequence (P16066 33-1061): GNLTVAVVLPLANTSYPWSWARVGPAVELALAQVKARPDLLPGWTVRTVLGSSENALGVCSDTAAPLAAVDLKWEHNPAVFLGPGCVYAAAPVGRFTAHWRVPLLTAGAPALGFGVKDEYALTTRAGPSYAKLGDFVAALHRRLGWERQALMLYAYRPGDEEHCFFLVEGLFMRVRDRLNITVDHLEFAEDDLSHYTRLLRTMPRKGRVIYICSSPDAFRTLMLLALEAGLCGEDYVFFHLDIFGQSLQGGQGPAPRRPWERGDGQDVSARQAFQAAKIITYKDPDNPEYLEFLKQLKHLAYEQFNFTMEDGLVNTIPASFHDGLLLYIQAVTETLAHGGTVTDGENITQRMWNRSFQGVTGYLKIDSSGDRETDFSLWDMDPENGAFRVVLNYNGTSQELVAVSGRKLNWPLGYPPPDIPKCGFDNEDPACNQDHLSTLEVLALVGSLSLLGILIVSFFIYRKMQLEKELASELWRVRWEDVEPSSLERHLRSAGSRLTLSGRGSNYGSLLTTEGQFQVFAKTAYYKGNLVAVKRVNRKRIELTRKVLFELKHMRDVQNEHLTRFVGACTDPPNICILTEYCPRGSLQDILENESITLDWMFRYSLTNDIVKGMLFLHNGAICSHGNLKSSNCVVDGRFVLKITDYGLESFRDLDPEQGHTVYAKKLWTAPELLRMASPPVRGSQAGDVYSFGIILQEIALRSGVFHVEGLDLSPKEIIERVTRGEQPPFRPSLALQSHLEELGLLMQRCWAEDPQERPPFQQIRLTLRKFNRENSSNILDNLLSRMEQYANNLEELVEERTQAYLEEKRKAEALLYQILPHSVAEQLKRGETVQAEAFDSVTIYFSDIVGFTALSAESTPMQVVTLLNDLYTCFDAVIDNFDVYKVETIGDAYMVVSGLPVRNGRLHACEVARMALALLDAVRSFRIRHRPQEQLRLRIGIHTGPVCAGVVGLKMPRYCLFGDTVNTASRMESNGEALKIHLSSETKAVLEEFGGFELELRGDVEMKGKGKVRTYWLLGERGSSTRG
Experimental: as §1
HEK 293 cells were transfected using the lipofectamine 2000 transfection protocol (Invitrogen). Cells (95% confluence) were transfected with 45% pcDNA3.1/hNPR-A, 45% pcDNA3.1, and 10% pEGFP-NI to the optimal DNA concentration specified in the protocol. The co-transfection with pEGFP-NI plasmid allowed the determination of the transfection efficiency. This was assessed by the estimation of the number of GFP-expressing cells using an Olympus IX70 inverted fluorescence microscope. Transfected cells were used for assay purposes within 24 h.
as §2

[1] = 30 min at 37 °C, three to five separate experiments in triplicate, read-out: rNPR-A EC50 (95% CI), potency to stimulate cGMP production

| SMILES | EC50 (rat NPR-A; [1]) | EC50 (rat NPR-A; read-out: EC50 at rNPR-A) | Emax at 10 µM (human NPR-A) | EC50 (human NPR-A) |
| --- | --- | --- | --- | --- |
| CC[C@H](C)[C@H](NC(=O)[C@H](CCCCN)NC(=O)[C@H](CO)NC(=O)[C@H](CC(=O)O)NC(=O)[C@@H](N)CO)C(=O)NCC(=O)N[C@@H](CC(=O)O)C(=O)NCC(=O)N[C@H]1CSSC[C@@H](C(=O)N[C@@H](CC(N)=O)C(=O)N[C@@H](CCCNC(=N)N)C(=O)N2CCC[C@H]2C(=O)N[C@H](C(=O)N[C@@H](CCC(N)=O)C(=O)N[C@@H](CC(N)=O)C(=O)N[C@@H](CCCNC(=N)N)C(=O)N2CCC[C@H]2C(=O)N[C@@H](CCCCN)C(=O)N[C@@H](CCC(N)=O)C(=O)N[C@H](C(=O)N2CCC[C@H]2C(=O)NCC(=O)NCC(=O)N[C@@H](CO)C(=O)O)[C@@H](C)CC)C(C)C)NC(=O)CNC(=O)[C@H](CC(C)C)NC(=O)CNC(=O)[C@H](CO)NC(=O)[C@H](C(C)C)NC(=O)[C@H](CO)NC(=O)CNC(=O)[C@H]([C@@H](C)CC)NC(=O)[C@H](Cc2c[nH]cn2)NC(=O)[C@H](CC(=O)O)NC(=O)[C@H](CC(C)C)NC(=O)[C@@H]2CCCN2C(=O)[C@H](CC(C)C)NC(=O)CNC(=O)[C@H](Cc2ccccc2)NC1=O [TNPe] (H-SDSKIGDGCFGLPLDHIGSVSGLGCNRPVQNRPKQIPGGS-OH; disulfide 9-25) | 1800 nM | > 1000 nM | < 20% | > 10000 nM |
| CC[C@H](C)[C@@H]1NC(=O)[C@H](Cc2c[nH]cn2)NC(=O)[C@H](CC(=O)O)NC(=O)[C@H](CC(C)C)NC(=O)[C@@H]2CCCN2C(=O)[C@H](CC(C)C)NC(=O)CNC(=O)[C@H](Cc2ccccc2)NC(=O)[C@@H](NC(=O)CNC(=O)[C@H](CC(=O)O)NC(=O)CNC(=O)[C@@H](NC(=O)[C@H](CCCCN)NC(=O)[C@@H]2CCCN2C(=O)[C@H](CC(=O)O)NC(=O)[C@@H](N)CO)[C@@H](C)CC)CSSC[C@@H](C(=O)N[C@@H](CC(N)=O)C(=O)N[C@@H](CCCNC(=N)N)C(=O)N2CCC[C@H]2C(=O)N[C@H](C(=O)N[C@@H](CCC(N)=O)C(=O)N[C@@H](CC(N)=O)C(=O)N[C@@H](CCCNC(=N)N)C(=O)N2CCC[C@H]2C(=O)N[C@@H](CCCCN)C(=O)N[C@@H](CCCCN)C(=O)O)C(C)C)NC(=O)CNC(=O)[C@H](CC(C)C)NC(=O)CNC(=O)[C@H](CO)NC(=O)[C@H](C(C)C)NC(=O)[C@H](CO)NC(=O)CNC1=O [TNPb] (H-SDPKIGDGCFGLPLDHIGSVSGLGCNRPVQNRPKK-OH; disulfide 9-25) | 1200 nM | > 1000 nM | ~30% | > 10000 nM |
| CC[C@H](C)[C@H](NC(=O)[C@H](CCCCN)NC(=O)[C@H](CO)NC(=O)[C@H](CC(=O)O)NC(=O)[C@@H](N)CO)C(=O)NCC(=O)N[C@@H](CC(=O)O)C(=O)NCC(=O)N[C@H]1CSSC[C@@H](C(=O)N[C@@H](CC(N)=O)C(=O)N[C@@H](CCCNC(=N)N)C(=O)N2CCC[C@H]2C(=O)N[C@H](C(=O)N[C@@H](CCC(N)=O)C(=O)N[C@@H](CC(N)=O)C(=O)N[C@@H](CCCNC(=N)N)C(=O)N2CCC[C@H]2C(=O)N[C@@H](CCCCN)C(=O)N[C@@H](CCCCN)C(=O)O)C(C)C)NC(=O)CNC(=O)[C@H](CC(C)C)NC(=O)CNC(=O)[C@H](CO)NC(=O)[C@H](C(C)C)NC(=O)[C@H](CO)NC(=O)CNC(=O)[C@H]([C@@H](C)CC)NC(=O)[C@H](Cc2c[nH]cn2)NC(=O)[C@H](CC(=O)O)NC(=O)[C@H](CC(C)C)NC(=O)[C@@H]2CCCN2C(=O)[C@H](CC(C)C)NC(=O)CNC(=O)[C@H](Cc2ccccc2)NC1=O [TNPa] (H-SDSKIGDGCFGLPLDHIGSVSGLGCNRPVQNRPKK-OH; disulfide 9-25) | 2020 nM | > 1000 nM | < 20% | > 10000 nM |
